Results: ChEMBL document CHEMBL4052645, “Discovery of potent and efficacious pyrrolopyridazines as dual JAK1/3 inhibitors” (Bioorg Med Chem Lett, 2017)
pIC50: −log10 of the molar value. Active and inactive are the calls of the source. No cut-off for these calls is given here.

What was measured:
[1] = tested on: Mus musculus; experiment: Antiarthritic activity in collagen-induced arthritis mouse model assessed as reduction in inflammation at 20 mg/kg bid measure up to 41 days; type: functional, organism-based
[2] = tested on: Mus musculus; experiment: Antiarthritic activity in collagen-induced mouse model assessed as […] at 20 mg/kg bid up to 41 days; type: functional, organism-based
[3] = Selectivity ratio of IC50 for JAK2 dependent EPO-induced STAT5A phosphorylation in human TF1 cells to IC50 for JAK1/JAK3 dependent IL2-induced STAT3 phosphorylation in human PBMC derived T-cells
[4] = Metabolic stability in mouse liver microsomes assessed as compound remaining after 10 mins; type: ADME, microsome; conditions: read-out: Stability
[5] = target: Tyrosine-protein kinase JAK1 (Homo sapiens, UniProt P23458); experiment: Inhibition of GST-tagged JAK1 (unknown origin) after 3 hrs by Caliper assay
Tyrosine-protein kinase JAK1, sequence (P23458 whole entry): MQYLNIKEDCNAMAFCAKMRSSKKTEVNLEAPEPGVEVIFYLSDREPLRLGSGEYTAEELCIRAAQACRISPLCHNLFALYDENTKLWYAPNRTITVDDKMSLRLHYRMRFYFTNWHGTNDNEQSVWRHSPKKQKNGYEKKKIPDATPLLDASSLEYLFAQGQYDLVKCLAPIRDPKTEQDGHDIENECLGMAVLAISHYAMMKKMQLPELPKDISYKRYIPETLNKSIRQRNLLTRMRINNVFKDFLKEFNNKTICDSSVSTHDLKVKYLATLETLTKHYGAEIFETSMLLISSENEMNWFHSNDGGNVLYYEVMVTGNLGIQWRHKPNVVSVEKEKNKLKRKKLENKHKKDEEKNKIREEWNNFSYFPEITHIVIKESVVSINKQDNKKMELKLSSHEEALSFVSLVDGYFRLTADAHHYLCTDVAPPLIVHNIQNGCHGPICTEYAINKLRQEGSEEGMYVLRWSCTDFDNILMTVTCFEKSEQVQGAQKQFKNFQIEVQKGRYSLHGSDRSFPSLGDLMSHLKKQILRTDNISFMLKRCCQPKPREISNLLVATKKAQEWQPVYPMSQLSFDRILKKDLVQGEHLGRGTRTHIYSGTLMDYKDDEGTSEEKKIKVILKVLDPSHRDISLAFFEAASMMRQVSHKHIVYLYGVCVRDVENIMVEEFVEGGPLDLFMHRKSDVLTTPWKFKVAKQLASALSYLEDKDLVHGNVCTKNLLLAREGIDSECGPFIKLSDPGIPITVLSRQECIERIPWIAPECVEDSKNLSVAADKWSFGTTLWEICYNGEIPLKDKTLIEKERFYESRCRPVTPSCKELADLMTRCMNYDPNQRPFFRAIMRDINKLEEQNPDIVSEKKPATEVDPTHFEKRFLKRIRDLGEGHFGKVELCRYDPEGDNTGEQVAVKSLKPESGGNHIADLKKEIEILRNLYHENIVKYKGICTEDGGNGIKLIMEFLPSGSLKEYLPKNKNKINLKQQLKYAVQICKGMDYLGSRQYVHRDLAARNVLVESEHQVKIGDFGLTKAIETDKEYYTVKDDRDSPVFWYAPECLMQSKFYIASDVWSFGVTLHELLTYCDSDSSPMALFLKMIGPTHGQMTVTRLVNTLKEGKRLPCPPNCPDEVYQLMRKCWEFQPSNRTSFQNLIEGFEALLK

[6] = target: Non-receptor tyrosine-protein kinase TYK2 (Homo sapiens, UniProt P29597); experiment: Inhibition of His-tagged TYK2 (unknown origin) after 3 hrs by Caliper assay
Non-receptor tyrosine-protein kinase TYK2, sequence (P29597 whole entry): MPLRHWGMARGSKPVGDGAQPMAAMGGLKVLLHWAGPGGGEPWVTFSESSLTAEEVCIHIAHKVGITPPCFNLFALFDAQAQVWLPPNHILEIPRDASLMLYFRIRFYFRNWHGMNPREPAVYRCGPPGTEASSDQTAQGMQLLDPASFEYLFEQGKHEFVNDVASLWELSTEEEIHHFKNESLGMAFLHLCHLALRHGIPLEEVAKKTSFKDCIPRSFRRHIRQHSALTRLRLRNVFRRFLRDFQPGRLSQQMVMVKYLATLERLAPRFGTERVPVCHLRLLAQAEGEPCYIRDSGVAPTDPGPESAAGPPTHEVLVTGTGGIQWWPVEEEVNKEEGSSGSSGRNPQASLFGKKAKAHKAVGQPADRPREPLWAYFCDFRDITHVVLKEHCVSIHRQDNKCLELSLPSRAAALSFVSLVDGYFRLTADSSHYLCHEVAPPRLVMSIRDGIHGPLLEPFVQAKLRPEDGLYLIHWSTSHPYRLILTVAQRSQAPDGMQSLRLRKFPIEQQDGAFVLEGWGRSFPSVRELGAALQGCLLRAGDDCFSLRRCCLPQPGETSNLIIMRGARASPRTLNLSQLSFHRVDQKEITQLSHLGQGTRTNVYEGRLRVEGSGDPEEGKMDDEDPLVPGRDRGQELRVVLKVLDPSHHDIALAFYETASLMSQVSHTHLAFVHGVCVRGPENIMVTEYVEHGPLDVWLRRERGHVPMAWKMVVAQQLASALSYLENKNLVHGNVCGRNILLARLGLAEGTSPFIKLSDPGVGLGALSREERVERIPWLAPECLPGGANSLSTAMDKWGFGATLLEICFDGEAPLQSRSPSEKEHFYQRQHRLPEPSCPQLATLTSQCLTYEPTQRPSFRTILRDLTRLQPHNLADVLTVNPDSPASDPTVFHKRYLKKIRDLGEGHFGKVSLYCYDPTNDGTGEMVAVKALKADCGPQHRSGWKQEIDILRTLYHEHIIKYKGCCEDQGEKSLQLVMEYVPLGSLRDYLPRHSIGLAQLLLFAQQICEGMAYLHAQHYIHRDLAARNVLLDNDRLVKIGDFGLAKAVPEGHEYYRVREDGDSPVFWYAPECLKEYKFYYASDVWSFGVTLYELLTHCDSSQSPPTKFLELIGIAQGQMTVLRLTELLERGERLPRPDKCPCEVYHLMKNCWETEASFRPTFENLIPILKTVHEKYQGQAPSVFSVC

[7] = Cmin in mouse at 10 mg/kg, po after 8 hrs; type: ADME, organism-based; conditions: in vivo, read-out: Cmin
[8] = target: Voltage-gated inwardly rectifying potassium channel KCNH2 (Homo sapiens, UniProt Q12809); experiment: Inhibition of human ERG by flux-based assay
Voltage-gated inwardly rectifying potassium channel KCNH2, sequence (Q12809 whole entry): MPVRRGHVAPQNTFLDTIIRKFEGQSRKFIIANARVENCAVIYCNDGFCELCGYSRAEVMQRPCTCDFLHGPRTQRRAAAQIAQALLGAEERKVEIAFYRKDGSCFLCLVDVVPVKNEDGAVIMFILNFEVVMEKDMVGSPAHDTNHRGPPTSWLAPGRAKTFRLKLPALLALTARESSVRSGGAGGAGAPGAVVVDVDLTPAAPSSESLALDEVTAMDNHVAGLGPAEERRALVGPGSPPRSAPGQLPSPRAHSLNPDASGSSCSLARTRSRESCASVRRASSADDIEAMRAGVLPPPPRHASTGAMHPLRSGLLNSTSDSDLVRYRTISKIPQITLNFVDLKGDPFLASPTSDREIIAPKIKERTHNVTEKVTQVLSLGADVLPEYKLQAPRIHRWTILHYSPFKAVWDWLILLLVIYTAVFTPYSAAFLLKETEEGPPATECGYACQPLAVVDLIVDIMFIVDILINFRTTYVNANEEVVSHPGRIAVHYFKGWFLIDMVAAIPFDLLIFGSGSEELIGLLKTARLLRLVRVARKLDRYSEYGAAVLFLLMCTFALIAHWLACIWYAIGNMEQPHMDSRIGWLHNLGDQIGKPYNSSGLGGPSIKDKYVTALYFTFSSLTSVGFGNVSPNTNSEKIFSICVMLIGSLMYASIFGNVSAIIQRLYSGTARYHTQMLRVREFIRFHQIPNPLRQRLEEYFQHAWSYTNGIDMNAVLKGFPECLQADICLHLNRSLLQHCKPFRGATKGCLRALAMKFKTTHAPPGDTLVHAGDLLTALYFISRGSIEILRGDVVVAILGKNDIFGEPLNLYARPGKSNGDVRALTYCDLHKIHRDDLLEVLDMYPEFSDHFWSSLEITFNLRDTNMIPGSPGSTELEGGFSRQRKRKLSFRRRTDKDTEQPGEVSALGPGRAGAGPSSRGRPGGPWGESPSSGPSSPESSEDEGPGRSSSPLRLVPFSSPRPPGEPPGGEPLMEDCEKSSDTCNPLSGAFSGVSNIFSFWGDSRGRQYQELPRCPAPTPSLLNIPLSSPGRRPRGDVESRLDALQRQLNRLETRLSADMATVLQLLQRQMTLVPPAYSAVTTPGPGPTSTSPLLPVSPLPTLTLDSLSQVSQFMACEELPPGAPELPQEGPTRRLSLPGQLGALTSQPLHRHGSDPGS

[9] = Permeability from apical side to basolateral side in human Caco2 cells; type: ADME, cell-based; conditions: Caco-2, read-out: permeability
[10] = target: JAK3/JAK1 (Homo sapiens, UniProt P23458+P52333); experiment: Inhibition of JAK1/JAK3 in human whole blood assessed as reduction in IL-2 induced IFN-gamma production after 18 hrs by ELISA; type: protein-complex assay
JAK3/JAK1, sequence (P23458 whole entry, one chain of several): as the sequence (P23458 whole entry) above

[11] = target: Tyrosine-protein kinase JAK2 (Homo sapiens, UniProt O60674); experiment: Inhibition of GST-tagged JAK2 (unknown origin) after 3 hrs by Caliper assay
Tyrosine-protein kinase JAK2, sequence (O60674 whole entry): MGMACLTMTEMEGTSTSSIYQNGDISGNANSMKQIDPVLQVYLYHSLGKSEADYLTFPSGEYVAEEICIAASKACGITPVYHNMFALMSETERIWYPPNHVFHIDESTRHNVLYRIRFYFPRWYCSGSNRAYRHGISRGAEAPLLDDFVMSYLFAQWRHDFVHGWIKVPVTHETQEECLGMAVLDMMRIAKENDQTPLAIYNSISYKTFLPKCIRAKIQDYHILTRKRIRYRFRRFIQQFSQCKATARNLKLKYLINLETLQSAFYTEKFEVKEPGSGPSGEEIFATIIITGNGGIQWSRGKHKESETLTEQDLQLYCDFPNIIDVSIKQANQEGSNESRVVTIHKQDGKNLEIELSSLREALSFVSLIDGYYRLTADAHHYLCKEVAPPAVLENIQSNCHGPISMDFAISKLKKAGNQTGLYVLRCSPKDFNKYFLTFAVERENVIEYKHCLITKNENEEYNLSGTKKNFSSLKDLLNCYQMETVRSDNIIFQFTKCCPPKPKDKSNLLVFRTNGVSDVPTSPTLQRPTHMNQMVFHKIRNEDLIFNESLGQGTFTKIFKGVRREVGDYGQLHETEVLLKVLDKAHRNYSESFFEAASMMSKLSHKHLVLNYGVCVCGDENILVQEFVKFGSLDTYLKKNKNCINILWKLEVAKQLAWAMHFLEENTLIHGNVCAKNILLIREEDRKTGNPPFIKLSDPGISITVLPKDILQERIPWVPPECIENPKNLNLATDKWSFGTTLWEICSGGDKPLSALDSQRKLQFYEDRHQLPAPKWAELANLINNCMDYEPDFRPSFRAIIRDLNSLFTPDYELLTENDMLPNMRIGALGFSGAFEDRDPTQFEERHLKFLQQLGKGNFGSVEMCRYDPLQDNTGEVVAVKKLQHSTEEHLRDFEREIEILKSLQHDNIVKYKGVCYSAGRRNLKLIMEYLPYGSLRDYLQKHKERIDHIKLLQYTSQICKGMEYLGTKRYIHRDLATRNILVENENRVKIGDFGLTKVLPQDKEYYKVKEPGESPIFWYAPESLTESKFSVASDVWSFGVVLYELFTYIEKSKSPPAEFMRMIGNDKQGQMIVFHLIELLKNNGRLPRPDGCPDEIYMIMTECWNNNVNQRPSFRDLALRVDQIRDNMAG

[12] = Cmax in mouse at 10 mg/kg, po after 8 hrs; type: ADME, organism-based; set-up: dose 10 mg/kg, route oral; conditions: in vivo
[13] = target: T1, Tyrosine-protein kinase JAK3 (Homo sapiens, UniProt P52333); experiment: Inhibition of JAK3 (unknown origin) using CSKtide as substrate after 30 mins in presence of [gamma33P]ATP by liquid scintillation counting method
T1 sequence (P52333 whole entry): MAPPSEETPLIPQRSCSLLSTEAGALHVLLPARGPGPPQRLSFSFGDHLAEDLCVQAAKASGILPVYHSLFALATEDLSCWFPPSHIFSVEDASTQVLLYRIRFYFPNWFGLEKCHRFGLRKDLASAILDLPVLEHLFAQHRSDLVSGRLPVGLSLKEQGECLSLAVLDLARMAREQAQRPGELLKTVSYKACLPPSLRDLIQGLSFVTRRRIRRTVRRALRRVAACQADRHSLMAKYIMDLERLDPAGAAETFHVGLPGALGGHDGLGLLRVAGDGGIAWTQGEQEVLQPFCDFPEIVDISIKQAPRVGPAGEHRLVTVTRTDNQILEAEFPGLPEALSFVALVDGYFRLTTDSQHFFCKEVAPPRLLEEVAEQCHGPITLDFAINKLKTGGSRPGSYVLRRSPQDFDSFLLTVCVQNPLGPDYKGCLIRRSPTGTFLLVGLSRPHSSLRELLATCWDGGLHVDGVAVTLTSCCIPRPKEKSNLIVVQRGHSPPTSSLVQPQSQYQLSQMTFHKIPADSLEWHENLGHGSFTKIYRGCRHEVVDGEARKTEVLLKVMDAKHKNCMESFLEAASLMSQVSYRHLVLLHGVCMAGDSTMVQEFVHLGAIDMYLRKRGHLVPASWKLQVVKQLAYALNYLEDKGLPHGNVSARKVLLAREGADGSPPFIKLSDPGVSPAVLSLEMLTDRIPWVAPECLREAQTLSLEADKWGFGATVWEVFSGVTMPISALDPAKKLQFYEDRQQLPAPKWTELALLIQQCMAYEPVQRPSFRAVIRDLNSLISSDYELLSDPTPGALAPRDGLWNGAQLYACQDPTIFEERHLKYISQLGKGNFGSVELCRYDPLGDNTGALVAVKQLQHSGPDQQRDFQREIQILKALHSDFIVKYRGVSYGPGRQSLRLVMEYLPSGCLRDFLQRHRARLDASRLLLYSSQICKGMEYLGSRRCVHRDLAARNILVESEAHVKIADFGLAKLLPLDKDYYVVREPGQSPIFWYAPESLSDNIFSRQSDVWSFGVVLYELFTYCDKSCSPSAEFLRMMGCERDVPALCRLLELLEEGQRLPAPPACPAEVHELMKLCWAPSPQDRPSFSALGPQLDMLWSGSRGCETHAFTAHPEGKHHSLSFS

[14] = species: Rattus norvegicus; experiment: Clearance of compound in rat relative to hepatic blood flow; type: ADME; conditions: in vivo
[15] = Oral bioavailability in rat; type: ADME, organism-based; conditions: in vivo
[16] = Clearance of compound in rat; type: ADME; conditions: in vivo
[17] = tested on: Serum; experiment: Protein binding in human serum; type: ADME, cell-free

## C[C@@H]1CCN(C(=O)CC#N)C[C@@H]1N(C)c1ncnc2[nH]ccc12
[1]
  Activity: Active
[2]
  Activity: Active

## CC1(C)[C@H](Nc2c(C(N)=O)cnn3cc(-c4ccc(F)nc4)cc23)CC[C@]1(C)N
[3]
  Ratio IC50: 13
[4]
  remaining at 10 min: 88%
[5]
  pIC50: 8.66
[6]
  pIC50: 7.57
[7]
  concentration at 8 h: 100 nM
[8]
  pIC50: 4.46
[9]
  Papp A→B: < 1.5 ×10⁻⁶ cm/s
[10]
  pIC50: 7.00
[11]
  pIC50: 7.72
[12]
  Cmax: 300 nM
[13]
  pIC50: 9.40

## CC1(C)[C@H](Nc2c(C(N)=O)cnn3cccc23)CC[C@]1(C)N
[14]
  CL: > 100%
[15]
  bioavailability: 24%
[16]
  clearance: 145 mL/min/kg
[17]
  PB: 97%
